Data: ChEMBL document CHEMBL4507286 (2021)
Active and inactive are the calls of the source. The rule behind the calls is not given here.

Assays:
[1] = target: Mitogen-activated protein kinase 1 (Homo sapiens, UniProt P28482); assay: ERK Biochemical Assay
[2] = tested on: Tyrosine-protein kinase ABL1 (Homo sapiens), P00519 [F317I]
[3] = target: Tyrosine-protein kinase ABL1 (Homo sapiens) (UniProt P00519)
[4] = target: Mitogen-activated protein kinase kinase kinase 5 (Homo sapiens) (UniProt Q99683)
[5] = target: Cytoplasmic tyrosine-protein kinase BMX (Homo sapiens) (UniProt P51813)
[6] = target: Serine/threonine-protein kinase BRSK2 (Homo sapiens) (UniProt Q8IWQ3)
[7] = target: Cyclin-dependent kinase-like 1 (Homo sapiens) (UniProt Q00532)
[8] = target: Dual specificity protein kinase CLK1 (Homo sapiens) (UniProt P49759)
[9] = target: Dual specificity tyrosine-phosphorylation-regulated kinase 1B (Homo sapiens) (UniProt Q9Y463)
[10] = target: Epidermal growth factor receptor (Homo sapiens) (UniProt P00533)
[11] = tested on: Epidermal growth factor receptor (Homo sapiens), P00533 [UNDEFINED MUTATION]
[12] = target: Mitogen-activated protein kinase 3 (Homo sapiens) (UniProt P27361)
[13] = target: Mitogen-activated protein kinase 6 (Homo sapiens) (UniProt Q16659)
[14] = target: Mitogen-activated protein kinase 7 (Homo sapiens) (UniProt Q13164)
[15] = target: Fibroblast growth factor receptor 3 (Homo sapiens) (UniProt P22607)
[16] = target: Fibroblast growth factor receptor 4 (Homo sapiens) (UniProt P22455)
[17] = tested on: Receptor-type tyrosine-protein kinase FLT3 (Homo sapiens), P36888 [D835H]
[18] = target: Inhibitor of nuclear factor kappa-B kinase subunit alpha (Homo sapiens) (UniProt O15111)
[19] = target: Interleukin-1 receptor-associated kinase 3 (Homo sapiens) (UniProt Q9Y616)
[20] = target: Mitogen-activated protein kinase 8 (Homo sapiens) (UniProt P45983)
[21] = tested on: Mast/stem cell growth factor receptor Kit (Homo sapiens), P10721 [D816V]
[22] = tested on: Mast/stem cell growth factor receptor Kit (Homo sapiens), P10721 [L576P]
[23] = target: MAP/microtubule affinity-regulating kinase 3 (Homo sapiens) (UniProt P27448)
[24] = target: Dual specificity mitogen-activated protein kinase kinase 4 (Homo sapiens) (UniProt P45985)
[25] = target: Misshapen-like kinase 1 (Homo sapiens) (UniProt Q8N4C8)
[26] = target: Mitogen-activated protein kinase kinase kinase 10 (Homo sapiens) (UniProt Q02779)
[27] = target: Serine/threonine-protein kinase MRCK alpha (Homo sapiens) (UniProt Q5VT25)
[28] = target: Macrophage-stimulating protein receptor (Homo sapiens) (UniProt Q04912)
[29] = target: Serine/threonine-protein kinase PAK 1 (Homo sapiens) (UniProt Q13153)
[30] = target: Cyclin-dependent kinase 15 (Homo sapiens) (UniProt Q96Q40)
[31] = target: Phosphorylase b kinase gamma catalytic chain, skeletal muscle/heart isoform (Homo sapiens) (UniProt Q16816)
[32] = tested on: Phosphatidylinositol 4,5-bisphosphate 3-kinase catalytic subunit alpha isoform (Homo sapiens), P42336 [M1043I]
[33] = target: Protein kinase C delta type (Homo sapiens) (UniProt Q05655)
[34] = target: Protein kinase C theta type (Homo sapiens) (UniProt Q04759)
[35] = target: Serine/threonine-protein kinase D1 (Homo sapiens) (UniProt Q15139)
[36] = target: Interferon-induced, double-stranded RNA-activated protein kinase (Homo sapiens) (UniProt P19525)
[37] = target: Receptor-interacting serine/threonine-protein kinase 4 (Homo sapiens) (UniProt P57078)
[38] = target: NUAK family SNF1-like kinase 2 (Homo sapiens) (UniProt Q9H093)
[39] = target: Serine/threonine-protein kinase 16 (Homo sapiens) (UniProt O75716)
[40] = target: Serine/threonine-protein kinase 35 (Homo sapiens) (UniProt Q8TDR2)
[41] = target: Dual specificity testis-specific protein kinase 1 (Homo sapiens) (UniProt Q15569)
[42] = target: Testis-specific serine/threonine-protein kinase 3 (Homo sapiens) (UniProt Q96PN8)
[43] = target: Serine/threonine-protein kinase WNK1 (Homo sapiens) (UniProt Q9H4A3)
[44] = target: D(4) dopamine receptor (Homo sapiens) (UniProt P21917); details: Compound concentration 10.0 uM
[45] = target: Sodium-dependent serotonin transporter (Homo sapiens) (UniProt P31645); details: Compound concentration 10.0 uM
[46] = Compound concentration 1000.0 nM
[47] = Compound concentration 100.0 nM

Chain of Dual specificity tyrosine-phosphorylation-regulated kinase 1B (Homo sapiens) (Q9Y463 whole entry, looked up): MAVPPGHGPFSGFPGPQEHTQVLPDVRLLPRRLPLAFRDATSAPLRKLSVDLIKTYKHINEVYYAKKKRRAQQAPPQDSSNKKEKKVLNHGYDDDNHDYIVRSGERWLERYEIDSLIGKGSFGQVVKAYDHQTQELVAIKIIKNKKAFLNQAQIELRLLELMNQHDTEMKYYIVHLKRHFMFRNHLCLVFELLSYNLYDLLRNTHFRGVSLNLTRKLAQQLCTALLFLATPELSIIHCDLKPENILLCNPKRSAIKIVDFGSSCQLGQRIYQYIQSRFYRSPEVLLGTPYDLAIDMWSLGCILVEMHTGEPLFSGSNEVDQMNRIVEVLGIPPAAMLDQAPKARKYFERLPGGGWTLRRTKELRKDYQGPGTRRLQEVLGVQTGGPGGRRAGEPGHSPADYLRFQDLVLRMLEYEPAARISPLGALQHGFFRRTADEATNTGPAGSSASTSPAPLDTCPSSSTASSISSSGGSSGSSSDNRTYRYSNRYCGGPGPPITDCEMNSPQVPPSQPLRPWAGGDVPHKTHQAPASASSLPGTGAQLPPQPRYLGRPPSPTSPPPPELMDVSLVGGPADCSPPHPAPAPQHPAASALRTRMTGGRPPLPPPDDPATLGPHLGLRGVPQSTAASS
Chain of Phosphorylase b kinase gamma catalytic chain, skeletal muscle/heart isoform (Homo sapiens) (Q16816 whole entry, looked up, canonical isoform): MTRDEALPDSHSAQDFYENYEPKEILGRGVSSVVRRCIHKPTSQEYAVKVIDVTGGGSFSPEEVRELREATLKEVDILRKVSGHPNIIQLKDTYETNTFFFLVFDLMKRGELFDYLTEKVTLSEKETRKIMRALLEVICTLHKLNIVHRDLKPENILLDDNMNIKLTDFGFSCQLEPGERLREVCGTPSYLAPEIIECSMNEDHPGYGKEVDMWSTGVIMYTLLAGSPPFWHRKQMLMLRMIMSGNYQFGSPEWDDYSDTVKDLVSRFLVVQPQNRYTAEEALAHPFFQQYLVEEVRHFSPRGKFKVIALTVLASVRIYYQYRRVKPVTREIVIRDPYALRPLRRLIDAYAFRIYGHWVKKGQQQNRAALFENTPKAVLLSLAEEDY
Chain of Mitogen-activated protein kinase kinase kinase 10 (Homo sapiens) (Q02779 whole entry, looked up): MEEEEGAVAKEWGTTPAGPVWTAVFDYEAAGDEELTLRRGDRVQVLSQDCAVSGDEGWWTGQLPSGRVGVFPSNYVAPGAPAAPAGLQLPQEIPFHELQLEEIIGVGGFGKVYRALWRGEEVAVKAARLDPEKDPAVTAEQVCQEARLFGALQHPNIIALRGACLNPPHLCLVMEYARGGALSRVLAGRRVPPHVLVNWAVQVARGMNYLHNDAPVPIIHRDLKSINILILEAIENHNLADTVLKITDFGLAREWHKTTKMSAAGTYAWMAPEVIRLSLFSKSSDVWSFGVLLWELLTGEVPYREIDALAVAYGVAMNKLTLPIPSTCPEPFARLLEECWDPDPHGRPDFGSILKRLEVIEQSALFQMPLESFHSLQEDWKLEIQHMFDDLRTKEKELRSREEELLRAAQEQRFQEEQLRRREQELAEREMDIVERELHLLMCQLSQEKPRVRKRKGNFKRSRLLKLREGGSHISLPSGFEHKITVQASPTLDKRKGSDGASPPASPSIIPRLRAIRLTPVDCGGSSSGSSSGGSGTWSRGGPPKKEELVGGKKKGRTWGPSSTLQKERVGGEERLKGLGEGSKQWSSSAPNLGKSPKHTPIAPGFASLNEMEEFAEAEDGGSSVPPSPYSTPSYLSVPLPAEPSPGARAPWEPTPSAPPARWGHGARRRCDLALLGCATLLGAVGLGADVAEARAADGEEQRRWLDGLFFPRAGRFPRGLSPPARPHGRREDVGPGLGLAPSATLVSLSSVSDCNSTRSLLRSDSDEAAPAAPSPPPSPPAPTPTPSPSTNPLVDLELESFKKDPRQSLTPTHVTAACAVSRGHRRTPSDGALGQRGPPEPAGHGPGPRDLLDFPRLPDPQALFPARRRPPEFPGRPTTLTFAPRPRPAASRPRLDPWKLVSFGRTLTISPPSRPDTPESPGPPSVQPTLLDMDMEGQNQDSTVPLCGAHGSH
Chain of Receptor-interacting serine/threonine-protein kinase 4 (Homo sapiens) (P57078 whole entry): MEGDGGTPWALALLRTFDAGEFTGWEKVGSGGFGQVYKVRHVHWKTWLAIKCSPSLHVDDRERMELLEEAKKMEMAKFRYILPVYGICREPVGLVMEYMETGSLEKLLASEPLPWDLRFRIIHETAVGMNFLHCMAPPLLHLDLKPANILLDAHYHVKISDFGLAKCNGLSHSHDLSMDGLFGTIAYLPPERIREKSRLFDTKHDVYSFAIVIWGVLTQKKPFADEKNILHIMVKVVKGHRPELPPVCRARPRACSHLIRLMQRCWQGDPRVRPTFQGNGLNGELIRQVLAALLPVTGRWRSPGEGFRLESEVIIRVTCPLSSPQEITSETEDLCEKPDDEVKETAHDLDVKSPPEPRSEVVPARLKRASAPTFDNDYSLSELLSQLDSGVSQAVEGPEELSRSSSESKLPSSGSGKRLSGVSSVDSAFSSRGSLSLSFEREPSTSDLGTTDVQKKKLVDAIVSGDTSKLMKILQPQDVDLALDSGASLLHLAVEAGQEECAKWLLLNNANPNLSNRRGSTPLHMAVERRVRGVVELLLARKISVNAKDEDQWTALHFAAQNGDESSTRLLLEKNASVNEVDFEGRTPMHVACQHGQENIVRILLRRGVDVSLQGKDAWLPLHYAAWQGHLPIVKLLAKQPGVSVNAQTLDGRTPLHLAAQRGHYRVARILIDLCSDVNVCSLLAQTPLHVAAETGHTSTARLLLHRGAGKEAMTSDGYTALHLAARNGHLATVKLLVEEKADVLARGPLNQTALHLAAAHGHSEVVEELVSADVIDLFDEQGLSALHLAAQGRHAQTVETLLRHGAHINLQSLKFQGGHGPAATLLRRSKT
Chain of Dual specificity protein kinase CLK1 (Homo sapiens) (P49759 whole entry, looked up): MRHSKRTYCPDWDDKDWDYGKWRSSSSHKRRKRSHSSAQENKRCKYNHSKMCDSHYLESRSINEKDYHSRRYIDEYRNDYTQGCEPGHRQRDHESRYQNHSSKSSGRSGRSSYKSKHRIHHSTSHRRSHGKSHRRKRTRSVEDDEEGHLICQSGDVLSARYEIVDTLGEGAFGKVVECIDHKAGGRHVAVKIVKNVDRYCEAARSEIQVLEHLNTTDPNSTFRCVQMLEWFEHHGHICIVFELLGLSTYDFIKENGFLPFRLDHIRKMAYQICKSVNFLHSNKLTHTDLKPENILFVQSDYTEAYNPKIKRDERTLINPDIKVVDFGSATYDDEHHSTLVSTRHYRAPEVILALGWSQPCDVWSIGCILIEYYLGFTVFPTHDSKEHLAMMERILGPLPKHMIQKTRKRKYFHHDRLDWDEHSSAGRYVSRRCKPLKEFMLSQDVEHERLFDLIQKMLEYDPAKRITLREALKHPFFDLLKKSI
Chain of Cytoplasmic tyrosine-protein kinase BMX (Homo sapiens) (P51813 whole entry): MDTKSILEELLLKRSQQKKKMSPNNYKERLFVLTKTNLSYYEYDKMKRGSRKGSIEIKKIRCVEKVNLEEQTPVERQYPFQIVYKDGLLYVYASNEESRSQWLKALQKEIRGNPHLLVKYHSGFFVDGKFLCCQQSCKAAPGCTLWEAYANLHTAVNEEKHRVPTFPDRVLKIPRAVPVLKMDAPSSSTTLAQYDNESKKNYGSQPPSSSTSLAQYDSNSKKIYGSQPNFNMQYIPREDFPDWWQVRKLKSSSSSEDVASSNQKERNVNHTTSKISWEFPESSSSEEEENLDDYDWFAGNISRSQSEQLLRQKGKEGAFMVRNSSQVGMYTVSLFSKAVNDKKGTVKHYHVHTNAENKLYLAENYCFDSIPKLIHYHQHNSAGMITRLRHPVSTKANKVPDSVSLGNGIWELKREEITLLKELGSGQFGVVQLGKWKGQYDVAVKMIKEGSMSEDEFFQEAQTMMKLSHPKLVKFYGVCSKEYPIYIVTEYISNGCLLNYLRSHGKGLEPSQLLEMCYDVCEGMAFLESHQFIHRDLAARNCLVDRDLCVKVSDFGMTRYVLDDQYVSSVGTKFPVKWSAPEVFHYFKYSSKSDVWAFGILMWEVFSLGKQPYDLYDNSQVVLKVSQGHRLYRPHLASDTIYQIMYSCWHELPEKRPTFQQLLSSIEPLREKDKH
Chain of D(4) dopamine receptor (Homo sapiens) (P21917 whole entry): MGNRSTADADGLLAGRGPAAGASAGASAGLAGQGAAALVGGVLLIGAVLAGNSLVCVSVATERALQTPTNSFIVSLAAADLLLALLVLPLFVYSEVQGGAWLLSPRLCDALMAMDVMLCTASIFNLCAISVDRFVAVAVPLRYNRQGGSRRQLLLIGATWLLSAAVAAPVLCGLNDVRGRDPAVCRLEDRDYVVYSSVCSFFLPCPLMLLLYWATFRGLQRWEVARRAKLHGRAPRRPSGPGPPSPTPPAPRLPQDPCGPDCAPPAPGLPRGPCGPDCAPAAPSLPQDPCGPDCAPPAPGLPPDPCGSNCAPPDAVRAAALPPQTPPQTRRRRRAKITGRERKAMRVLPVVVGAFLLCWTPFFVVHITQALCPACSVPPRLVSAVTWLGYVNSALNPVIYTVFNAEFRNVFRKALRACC
Chain of Dual specificity testis-specific protein kinase 1 (Homo sapiens) (Q15569 whole entry, looked up): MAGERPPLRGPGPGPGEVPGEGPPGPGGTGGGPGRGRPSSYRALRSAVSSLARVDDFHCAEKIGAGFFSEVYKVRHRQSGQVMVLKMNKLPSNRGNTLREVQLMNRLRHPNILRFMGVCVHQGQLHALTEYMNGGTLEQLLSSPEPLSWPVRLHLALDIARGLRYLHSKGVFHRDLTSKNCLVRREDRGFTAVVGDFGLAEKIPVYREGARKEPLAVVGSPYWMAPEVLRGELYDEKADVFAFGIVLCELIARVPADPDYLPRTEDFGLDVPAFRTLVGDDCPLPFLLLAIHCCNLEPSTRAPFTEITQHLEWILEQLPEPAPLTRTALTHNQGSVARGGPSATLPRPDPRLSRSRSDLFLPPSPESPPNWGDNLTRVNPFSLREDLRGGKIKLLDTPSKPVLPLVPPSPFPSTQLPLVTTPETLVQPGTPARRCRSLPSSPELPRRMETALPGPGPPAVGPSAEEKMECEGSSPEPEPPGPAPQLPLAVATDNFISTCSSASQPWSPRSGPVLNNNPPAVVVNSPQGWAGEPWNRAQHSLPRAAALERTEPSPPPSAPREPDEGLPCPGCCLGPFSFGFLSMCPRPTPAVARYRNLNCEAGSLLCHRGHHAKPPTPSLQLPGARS

C[C@H](NC(=O)Nc1cc2[nH]ncc2c(CO)n1)c1ccccn1 [ERKi-NC]
IC50 [1]: 1780 nM (not active) | residual activity [2, 46]: 100% | residual activity [3, 46]: 51.5% | residual activity [4, 46]: 100% | residual activity [5, 46]: 91.7% | residual activity [6, 46]: 88% | residual activity [7, 46]: 78.8% | residual activity [8, 46]: 94.4% | residual activity [9, 46]: 57.6% | residual activity [10, 46]: 100% | residual activity [11, 46]: 100% | residual activity [12, 46]: 17% | residual activity [13, 46]: 100% | residual activity [14, 46]: 87.9% | residual activity [15, 46]: 81.8% | residual activity [16, 46]: 100% | residual activity [17, 46]: 100% | residual activity [18, 46]: 100% | residual activity [19, 46]: 99.3% | residual activity [20, 46]: 63.3% | residual activity [21, 46]: 100% | residual activity [22, 46]: 100% | residual activity [23, 46]: 89.6% | residual activity [24, 46]: 88.9% | residual activity [25, 46]: 77.7% | residual activity [26, 46]: 100% | residual activity [27, 46]: 93.5% | residual activity [28, 46]: 85.5% | residual activity [29, 46]: 100% | residual activity [30, 46]: 97.4% | residual activity [31, 46]: 96.3% | residual activity [32, 46]: 37.7% | residual activity [33, 46]: 63.8% | residual activity [34, 46]: 100% | residual activity [35, 46]: 89.4% | residual activity [36, 46]: 71.8% | residual activity [37, 46]: 100% | residual activity [38, 46]: 100% | residual activity [39, 46]: 100% | residual activity [40, 46]: 100% | residual activity [41, 46]: 100% | residual activity [42, 46]: 100% | residual activity [43, 46]: 100% | inhibition [44]: 16.6% | inhibition [45]: -0.787%

C[C@@H](NC(=O)Nc1cc2[nH]ncc2c(CO)n1)c1ccccc1 [ERKi]
IC50 [1]: 1.8 nM (active) | residual activity [2, 47]: 100% | residual activity [3, 47]: 85.9% | residual activity [4, 47]: 100% | residual activity [5, 47]: 94.3% | residual activity [6, 47]: 89.3% | residual activity [7, 47]: 81.1% | residual activity [8, 47]: 72.6% | residual activity [9, 47]: 95.9% | residual activity [10, 47]: 80.6% | residual activity [11, 47]: 88.7% | residual activity [12, 47]: 0.2% | residual activity [13, 47]: 95.2% | residual activity [14, 47]: 85.5% | residual activity [15, 47]: 85.4% | residual activity [16, 47]: 100% | residual activity [17, 47]: 100% | residual activity [18, 47]: 100% | residual activity [19, 47]: 80% | residual activity [20, 47]: 93.7% | residual activity [21, 47]: 82.7% | residual activity [22, 47]: 72.1% | residual activity [23, 47]: 100% | residual activity [24, 47]: 89.2% | residual activity [25, 47]: 90.1% | residual activity [26, 47]: 100% | residual activity [27, 47]: 86.5% | residual activity [28, 47]: 94.4% | residual activity [29, 47]: 79.1% | residual activity [30, 47]: 80.6% | residual activity [31, 47]: 84.1% | residual activity [32, 47]: 100% | residual activity [33, 47]: 94.9% | residual activity [34, 47]: 100% | residual activity [35, 47]: 100% | residual activity [36, 47]: 78.1% | residual activity [37, 47]: 76% | residual activity [38, 47]: 76% | residual activity [39, 47]: 60.3% | residual activity [40, 47]: 91.1% | residual activity [41, 47]: 100% | residual activity [42, 47]: 91.1% | residual activity [43, 47]: 90.8% | inhibition [44]: -1% | inhibition [45]: 2.86%
